From patent US6703483B1, “Compounds useful in pain management” (Cornell Research Foundation, Inc., priority 1999, dated 2004)

How the values were obtained:
[1] = Respiratory depression studies (whole body plethysmography) after i.th. administration; settings: rat; for decrease of minute ventilation: during 3 to 6 hours after administration
Procedure: Whole body plethysmography was performed as described in the literature (K. Tatsumi et al., J. Appl. Physiol. 71, 37-42 (1991)). An unrestrained rat was placed in a 3-liter whole-body plethysmograph chamber and breathed 100% humidified air supplied into and out of the chamber at a rate of 1000 ml/min. After a 15-min acclimation period the inlet and outlet of the chamber were closed and the pressure changes in the box, caused by the warming and wetting of the gas inspired by the rat and the cooling and drying of the expired gas, were recorded using a high-gain differential pressure transducer. A calibration volume of 0.2 ml of air was regularly introduced into the chamber during the recordings. The recordings were made for 20-30 seconds. Subsequently, the inlet and outlet were opened, and the gas supply was changed to a mixture of 5% CO2 and 21% O2 in N2 (100% humidified) and the rat was allowed to breathe the gas mixture for 5 min to reach a steady-state ventilatory condition. The recordings of changes in pressure were repeated with the chamber closed. Tidal volumes were calculated from the pressure changes using the equation derived by J. E. Drorbaugh and W. O. Fenn, Pediatrics 16, 81-87 (1955). Respiratory frequencies were also determined from the number of respiratory cycles in the recordings and minute ventilations were calculated (tidal volume x frequency).
Compounds were administered at a low dose (3×ED50 determined in the analgesic test) and at a high dose (30×ED50).

[2] = Hemodynamic and metabolic effects in the pregnant sheep model; type: in vivo; settings: i.v. infusion 0.6 mg/kg/h and 0.06 mg/kg/h, respectively
Procedure: Using the same instrumented pregnant sheep model described above, DALDA and its analogs were administered by i.v. infusion at a dose of 0.6 mg/kg/h and 0.06 mg/kg/h, respectively. No effect on maternal blood pressure, heart rate, blood gases and plasma glucose were observed. Similarly, neither peptide had any effect on fetal blood pressure, heart rate, blood gases and plasma glucose.

[3] = 2 h after i.th. administration, dose 7.5 μg (32×ED50); cited from earlier work
μ receptors = settings: GPI; cited from earlier work
[4] = In vivo disposition in pregnant sheep (fetal plasma, placental transfer); settings: i.v. infusion to pregnant sheep
Procedure: The in vivo disposition after i.v. administration to pregnant sheep was examined by using procedures described in the literature (H. H. Szeto et al. J. Pharmacol. Exp. Ther. 284. 61-65 (1998)). Chronic indwelling catheters were surgically placed in four pregnant ewes (gestional age, 115-120 days; term ˜145 days) as described by H. H. Szeto et al., Am. J. Physiol. 258, R1453-R1458 (1990). […] The compounds according to the invention were administered as a constant-rate intravenous infusion (0.6 mg/kg/h and 0.06 mg/kg/h, respectively, for 4 h) to the sheep, and blood samples were collected at 0, 1, 2, 3, 3.5, 4, 4.25, 4.5, 5, 6, 7, 12 and 24 h. Blood samples were collected form the fetus at 0, 3, 3.5, 4, 5 and 6 h. All blood samples were collected into chilled borosilicate glass tubes containing EDTA and centrifuged, and the plasma was stored in glass containers with Teflon-lined caps and frozen at −80° C.
The compounds were quantified by using reversed-phase HPLC and MS detection, as described by Grigoriants et al., J. Chromatogr. B, Biomedical Applications 695, 287-298 (1997). […] The filtered plasma sample was chromatographed on an RP-analytical column (Delta Pak, 5 μm, C18, 100 Å, 150×3.9 mm; Waters, Milford, Mass.) at a flow rate of 1.5 ml/min, and UV absorption was monitored at 200 nm. […] Continuous flow-LSIMS was used to quantify DALDA. […]

μ receptor = target: T1, μ receptor (Rattus norvegicus, UniProt P33535); settings: rat brain membranes; cited from earlier work
T1 construct: from tissue; host or cells: rat brain (cerebellum removed) membranes
T1 sequence (P33535 whole entry): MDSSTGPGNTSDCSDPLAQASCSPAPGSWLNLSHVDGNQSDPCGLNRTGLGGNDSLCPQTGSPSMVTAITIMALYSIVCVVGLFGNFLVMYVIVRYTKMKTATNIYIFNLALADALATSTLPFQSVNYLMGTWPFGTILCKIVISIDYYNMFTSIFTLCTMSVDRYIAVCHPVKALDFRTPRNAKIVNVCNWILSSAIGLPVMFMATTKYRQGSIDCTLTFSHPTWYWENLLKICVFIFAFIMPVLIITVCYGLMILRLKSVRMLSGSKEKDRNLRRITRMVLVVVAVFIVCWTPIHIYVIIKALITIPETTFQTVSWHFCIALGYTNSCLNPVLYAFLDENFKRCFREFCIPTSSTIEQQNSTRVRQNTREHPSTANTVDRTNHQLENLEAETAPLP

| SMILES | decrease of minute ventilation compared to saline control ([1]; low dose (3×ED50) and high dose (30×ED50)) | decrease of minute ventilation ([1]; high dose (30×ED50)) [%] | effect on maternal blood pressure, heart rate, blood gases and plasma glucose [2] | delayed respiratory depression [3] | μ agonist potency (μ receptors) | crossing of the placental barrier [4] | decrease of minute ventilation ([1]; low dose (3×ED50)) [%] | μ receptor affinity (μ receptor) | μ receptor selectivity (μ receptor) |
| --- | --- | --- | --- | --- | --- | --- | --- | --- | --- |
| Cc1cc(O)cc(C)c1C[C@H](N)C(=O)N[C@H](CCCNC(=N)N)C(=O)N[C@@H](Cc1ccccc1)C(=O)N[C@@H](CCCCN)C(N)=O [Example 1, H-Dmt-D-Arg-Phe-Lys-NH2] | Neither dose of H-Dmt-D-Arg-Phe-Lys-NH2 significantly decreased minute ventilation |  |  |  |  |  |  |  |  |
| CN1CC[C@]23c4c5ccc(O)c4O[C@H]2[C@@H](O)C=C[C@H]3[C@H]1C5 [morphine] |  | 26 |  |  |  |  |  |  |  |
| NCCCC[C@H](NC(=O)[C@H](Cc1ccccc1)NC(=O)[C@@H](CCCN=C(N)N)NC(=O)[C@@H](N)Cc1ccc(O)cc1)C(N)=O [DALDA, H-Tyr-D-Arg-Phe-Lys-NH2] |  | 30 | No effect | did produce delayed respiratory depression | considerable μ agonist potency | do not cross the placental barrier to a significant extent | 26 | high μ receptor affinity | excellent μ receptor selectivity |
